Laboratory results: BindingDB's records for patent US20230339890 (Kineta, 2023)

target: T1, Lanosterol 14-alpha demethylase (Homo sapiens, UniProt Q16850); experiment: Inhibition of CYP51A1
T1 sequence (Q16850 whole entry): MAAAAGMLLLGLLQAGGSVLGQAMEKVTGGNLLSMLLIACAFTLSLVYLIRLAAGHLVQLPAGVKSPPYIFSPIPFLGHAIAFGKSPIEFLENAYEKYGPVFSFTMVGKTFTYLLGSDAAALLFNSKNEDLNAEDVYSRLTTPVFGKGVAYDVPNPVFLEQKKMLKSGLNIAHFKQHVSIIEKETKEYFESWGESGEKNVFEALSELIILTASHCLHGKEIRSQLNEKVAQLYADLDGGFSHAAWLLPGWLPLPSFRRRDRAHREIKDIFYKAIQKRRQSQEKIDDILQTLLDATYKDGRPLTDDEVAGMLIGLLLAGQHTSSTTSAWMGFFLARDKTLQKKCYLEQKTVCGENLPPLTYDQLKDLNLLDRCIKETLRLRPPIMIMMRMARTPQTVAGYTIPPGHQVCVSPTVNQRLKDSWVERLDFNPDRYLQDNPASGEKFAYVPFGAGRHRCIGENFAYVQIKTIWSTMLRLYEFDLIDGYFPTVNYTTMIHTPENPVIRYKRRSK
Description: Method: Recombinant human CYP51A1 (lanosterol-14a-demethylase) enzyme was coexpressed with CYP reductase in bacterial membranes and the fluorescent substrate BOMCC (a nonnatural substrate that causes increases in fluorescence upon CYP51A1-dependent demethylation) was used to obtain 8-point dose concentration-response curves for each compound.

IC50 [nM]	SMILES
> 1000	CCC(=O)N(CCc1ccc(C(F)(F)F)nc1)C[C@@H](O)c1cccnc1 [US20230339890, Compound 30]
< 100	CCC(=O)N(C[C@@H](O)c1cccnc1)C1CCc2cc(Cl)c(Cl)cc2C1 (some centres undefined) [US20230339890, Compound 70]
< 100	CC(C)(C)OC(=O)NCCCCCN(C[C@@H](O)c1cccnc1)C(=O)Cc1ccc(C#N)c(Cl)c1 [US20230339890, Compound 142]
< 100	CC(C)(C)OC(=O)NCCCCN(C[C@@H](O)c1cccnc1)C(=O)Cc1ccc(C(F)(F)F)nc1 [US20230339890, Compound 144]
